Experimental data published in publication PMC12649549, “Sequence Permutation Generated Lysine and Tryptophan-Rich Antimicrobial Peptides with Enhanced Therapeutic Index” (Antibiotics, 2025).
Where two headings read alike, the source gives them in different places.

Columns and labels:
[1] = system: A. baumannii 14B0097 (Acinetobacter sp., BCRC number 14B0097)
In short: (§1)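 MICs came from CLSI broth microdilution, with 5 × 10^5 CFU/mL bacteria exposed to peptide at final 0.78–50 µg/mL. Media were MH broth or LYM broth (pH 7.4), the latter also adjusted for salt (NaCl 50–300 mM, MgCl2 0.5–2.5 mM) or acidity (pH 4.5–6.5); triplicate independent experiments.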

[2] = system: Pseudomonas aeruginosa Migula (ATCC 27853)
In short: as §1

S. aureus ATCC 6538 = system: S. aureus ATCC 6538
In short: as §1

S. aureus ATCC 33591 = system: S. aureus ATCC 33591
In short: as §1

[3] = system: A. baumannii 14B00100 (Acinetobacter sp., BCRC number 14B0100)
In short: as §1

[4] = system: A. baumannii 14B0091 (Acinetobacter sp., BCRC number 14B0091)
In short: as §1

S. aureus ATCC 25923 = system: S. aureus ATCC 25923
In short: as §1

[5] = LYM broth, 0 mM NaCl, 16 h, 37 °C
[6] = LYM broth, 50 mM NaCl, 16 h, 37 °C
[7] = LYM broth, 100 mM NaCl, 16 h, 37 °C
[8] = LYM broth, 200 mM (NaCl), 16 h, 37 °C
[9] = LYM broth, 300 mM (NaCl), 16 h, 37 °C
[10] = MH broth, 5 × 10^5 CFU/mL, 16 h, 37 °C, repeated three times

For Ac-KWRKWLKWLAKKK-NH2 [Peptide W5K01], which MIC [1, 5] is on record?
The MIC was 1.56 µg/mL.

And the MIC ([1]; LYM broth, 0.5 mM MgCl2)?
The MIC was 1.56 µg/mL.

And the MIC ([1]; LYM broth, 1.5 mM MgCl2)?
Its MIC is 3.13 µg/mL.

What about the MIC ([1]; LYM broth, 2.5 mM MgCl2) of the same substance?
Its MIC is 3.13 µg/mL.

What about the MIC [1, 6] of the same substance?
The MIC was 1.56 µg/mL.

And the MIC [1, 7]?
The MIC was 3.13 µg/mL.

What about the MIC [1, 8] of the same substance?
The MIC was 3.13 µg/mL.

What about the MIC [1, 9] of the same substance?
Its MIC is 12.5 µg/mL.

What about the MIC ([1]; LYM broth, pH 4.5) of the same substance?
Its MIC is 3.13 µg/mL.

What about the MIC ([1]; LYM broth, pH 5.5) of the same substance?
The MIC was 3.13 µg/mL.

And the MIC ([1]; LYM broth, pH 6.5)?
The MIC was 1.56 µg/mL.

And the MIC [1, 10]?
Its MIC is 6.25 µg/mL.

What about the MIC [2, 5] of the same substance?
The MIC was 3.13 µg/mL.

And the MIC ([2]; LYM broth, 0.5 mM MgCl2)?
The MIC was 3.13 µg/mL.

What about the MIC ([2]; LYM broth, 1.5 mM MgCl2) of the same substance?
Its MIC is 6.25 µg/mL.

And the MIC ([2]; LYM broth, 2.5 mM MgCl2)?
The MIC was 12.5 µg/mL.

And the MIC [2, 6]?
The MIC was 6.25 µg/mL.

And the MIC [2, 7]?
Its MIC is 12.5 µg/mL.

What about the MIC [2, 8] of the same substance?
The MIC was greater than 50 µg/mL.

What about the MIC [2, 9] of the same substance?
Its MIC is greater than 50 µg/mL.

And the MIC ([2]; LYM broth, pH 4.5)?
The MIC was 3.13 µg/mL.

What about the MIC ([2]; LYM broth, pH 5.5) of the same substance?
Its MIC is 3.13 µg/mL.

And the MIC ([2]; LYM broth, pH 6.5)?
Its MIC is 1.56 µg/mL.

What about the MIC [2, 10] of the same substance?
Its MIC is 12.5 µg/mL.

What about the MIC (S. aureus ATCC 6538; [5]) of the same substance?
The MIC was 3.13 µg/mL.

What about the MIC (S. aureus ATCC 6538; LYM broth, 0.5 mM MgCl2) of the same substance?
The MIC was 1.56 µg/mL.

What about the MIC (S. aureus ATCC 6538; LYM broth, 1.5 mM MgCl2) of the same substance?
Its MIC is 1.56 µg/mL.

What about the MIC (S. aureus ATCC 6538; LYM broth, 2.5 mM MgCl2) of the same substance?
The MIC was 3.13 µg/mL.

And the MIC (S. aureus ATCC 6538; [6])?
Its MIC is 6.25 µg/mL.

And the MIC (S. aureus ATCC 6538; [7])?
The MIC was 12.5 µg/mL.

What about the MIC (S. aureus ATCC 6538; [8]) of the same substance?
Its MIC is 12.5 µg/mL.

What about the MIC (S. aureus ATCC 6538; [9]) of the same substance?
The MIC was 25 µg/mL.

And the MIC (S. aureus ATCC 6538; LYM broth, pH 4.5)?
Its MIC is 3.13 µg/mL.

And the MIC (S. aureus ATCC 6538; LYM broth, pH 5.5)?
Its MIC is 1.56 µg/mL.

And the MIC (S. aureus ATCC 6538; LYM broth, pH 6.5)?
The MIC was 1.56 µg/mL.

And the MIC (S. aureus ATCC 6538; [10])?
Its MIC is 12.5 µg/mL.

What about the MIC (S. aureus ATCC 33591; [5]) of the same substance?
Its MIC is 6.25 µg/mL.

What about the MIC (S. aureus ATCC 33591; LYM broth, 0.5 mM MgCl2) of the same substance?
Its MIC is 6.25 µg/mL.

What about the MIC (S. aureus ATCC 33591; LYM broth, 1.5 mM MgCl2) of the same substance?
Its MIC is 6.25 µg/mL.

What about the MIC (S. aureus ATCC 33591; LYM broth, 2.5 mM MgCl2) of the same substance?
The MIC was 6.25 µg/mL.

And the MIC (S. aureus ATCC 33591; [6])?
Its MIC is 12.5 µg/mL.

And the MIC (S. aureus ATCC 33591; [7])?
Its MIC is 12.5 µg/mL.

What about the MIC (S. aureus ATCC 33591; [8]) of the same substance?
The MIC was 25 µg/mL.

What about the MIC (S. aureus ATCC 33591; [9]) of the same substance?
Its MIC is 50 µg/mL.

What about the MIC (S. aureus ATCC 33591; LYM broth, pH 4.5) of the same substance?
Its MIC is 6.25 µg/mL.

And the MIC (S. aureus ATCC 33591; LYM broth, pH 5.5)?
The MIC was 6.25 µg/mL.

And the MIC (S. aureus ATCC 33591; LYM broth, pH 6.5)?
Its MIC is 3.13 µg/mL.

And the MIC (S. aureus ATCC 33591; [10])?
Its MIC is 50 µg/mL.

And the MIC [3, 5]?
Its MIC is 1.56 µg/mL.

What about the MIC ([3]; LYM broth, 0.5 mM MgCl2) of the same substance?
Its MIC is 1.56 µg/mL.

And the MIC ([3]; LYM broth, 1.5 mM MgCl2)?
The MIC was 1.56 µg/mL.

And the MIC ([3]; LYM broth, 2.5 mM MgCl2)?
Its MIC is 3.13 µg/mL.

What about the MIC [3, 6] of the same substance?
The MIC was 1.56 µg/mL.

What about the MIC [3, 7] of the same substance?
Its MIC is 3.13 µg/mL.

And the MIC [3, 8]?
Its MIC is 3.13 µg/mL.

What about the MIC [3, 9] of the same substance?
The MIC was 6.25 µg/mL.

What about the MIC ([3]; LYM broth, pH 4.5) of the same substance?
Its MIC is 1.56 µg/mL.

What about the MIC ([3]; LYM broth, pH 5.5) of the same substance?
Its MIC is 1.56 µg/mL.

And the MIC ([3]; LYM broth, pH 6.5)?
The MIC was 1.56 µg/mL.

And the MIC [3, 10]?
The MIC was 6.25 µg/mL.

And the MIC [4, 5]?
The MIC was 1.56 µg/mL.

And the MIC ([4]; LYM broth, 0.5 mM MgCl2)?
The MIC was 1.56 µg/mL.

What about the MIC ([4]; LYM broth, 1.5 mM MgCl2) of the same substance?
The MIC was 1.56 µg/mL.

What about the MIC ([4]; LYM broth, 2.5 mM MgCl2) of the same substance?
The MIC was 3.13 µg/mL.

What about the MIC [4, 6] of the same substance?
The MIC was 3.13 µg/mL.

And the MIC [4, 7]?
Its MIC is 3.13 µg/mL.

What about the MIC [4, 8] of the same substance?
The MIC was 3.13 µg/mL.

What about the MIC [4, 9] of the same substance?
The MIC was 12.5 µg/mL.

What about the MIC ([4]; LYM broth, pH 4.5) of the same substance?
Its MIC is 1.56 µg/mL.

What about the MIC ([4]; LYM broth, pH 5.5) of the same substance?
Its MIC is 1.56 µg/mL.

What about the MIC ([4]; LYM broth, pH 6.5) of the same substance?
Its MIC is 1.56 µg/mL.

What about the MIC [4, 10] of the same substance?
Its MIC is 6.25 µg/mL.

And the MIC (S. aureus ATCC 25923; [5])?
Its MIC is 3.13 µg/mL.

And the MIC (S. aureus ATCC 25923; LYM broth, 0.5 mM MgCl2)?
The MIC was 3.13 µg/mL.

What about the MIC (S. aureus ATCC 25923; LYM broth, 1.5 mM MgCl2) of the same substance?
Its MIC is 6.25 µg/mL.

And the MIC (S. aureus ATCC 25923; LYM broth, 2.5 mM MgCl2)?
Its MIC is 6.25 µg/mL.

What about the MIC (S. aureus ATCC 25923; [6]) of the same substance?
The MIC was 6.25 µg/mL.

And the MIC (S. aureus ATCC 25923; [7])?
The MIC was 12.5 µg/mL.

What about the MIC (S. aureus ATCC 25923; [8]) of the same substance?
The MIC was 50 µg/mL.

And the MIC (S. aureus ATCC 25923; [9])?
The MIC was greater than 50 µg/mL.

And the MIC (S. aureus ATCC 25923; LYM broth, pH 4.5)?
The MIC was 3.13 µg/mL.

And the MIC (S. aureus ATCC 25923; LYM broth, pH 5.5)?
The MIC was 3.13 µg/mL.

And the MIC (S. aureus ATCC 25923; LYM broth, pH 6.5)?
Its MIC is 1.56 µg/mL.

And the MIC (S. aureus ATCC 25923; [10])?
Its MIC is 12.5 µg/mL.
